The text below walks through data of ChEMBL document CHEMBL3779779, “Discovery of non-peptide small molecular CXCR4 antagonists as anti-HIV agents: Recent advances and future opportunities” (Eur J Med Chem, 2016).

Some results are limits rather than exact numbers.

The target of data set [1] is C-X-C chemokine receptor type 4 (Homo sapiens, UniProt P61073). The data set is described as follows: Displacement of [125I]SDF-1 from human CXCR4 expressed in HEK293 cell membrane. It is filed as cell membranes. For orientation: In a radioligand displacement assay an active substance lowers the binding of a labelled ligand.
Data set [2] concerns Human immunodeficiency virus 1. As to the kind of experiment: Antiviral activity against HIV1 3B infected in human MT4 cells assessed as reduction in virus-induced cytopathic effect after 5 days by MTT assay. In kind it is functional, organism-based. To be noted: Human immunodeficiency virus 1, 3B, MT4, 120 h. For orientation: Protection from cytopathic effect is a common read-out in antiviral testing.

The subject of data set [3] is Human immunodeficiency virus 1. The data set is described as follows: Antiviral activity against HIV1 clinical isolate X4 by cell based assay. To be noted: Human immunodeficiency virus 1, isolate X4. It is filed as functional, organism-based.
The test system of data set [4] is Human immunodeficiency virus 1. As to the kind of experiment: Antiviral activity against HIV1 clinical isolate R5 by cell based assay. It is filed as functional, organism-based. To be noted: Human immunodeficiency virus 1, isolate R5.
Data set [5] deals with Human immunodeficiency virus 1. As to the kind of experiment: Antiviral activity against HIV1 clinical isolate R5/X4 by cell based assay. It is filed as functional, organism-based. To be noted: Human immunodeficiency virus 1, isolate R5/X4.
Data set [6] can be described thus: Selectivity index, ratio of CC50 for human MT4 cells to EC50 for HIV1 3B infected in human MT4 cells. To be noted: read-out: Ratio CC50/EC50. It is filed as toxicity, cell-based.
In data set [7] the test system is Human immunodeficiency virus 2. As to the kind of experiment: Antiviral activity against HIV2 ROD infected in human MT4 cells assessed as reduction in virus-induced cytopathic effect after 5 days by MTT assay. To be noted: Human immunodeficiency virus 2, ISOLATE ROD, MT4, 120 h.
Data set [8] relates to Human immunodeficiency virus. As to the kind of experiment: Antiviral activity against HIV LAV Clade B infected in human MT4 cells assessed as inhibition of syncytia formation preincubated with cells for 1 hr followed by viral infection […] by inverted optical microscopic analysis. In kind it is functional, organism-based. To be noted: Human immunodeficiency virus 1, LAV Clade B.

Data set [9] is described as follows: Selectivity index, ratio of CC50 for human MT4 cells to EC50 for HIV LAV Clade B infected in human MT4 cells. In kind it is toxicity, cell-based. To be noted: read-out: Ratio CC50/EC50.
Data set [10] is described as follows: Tmax in Swiss Webster mouse plasma at 25 mg/kg, sc by LC-MS/MS analysis. It is filed as ADME, organism-based.
Data set [11] relates to Human immunodeficiency virus 1. The data set is described as follows: Antiviral activity against HIV1 infected in human MT4 cells assessed as reduction in virus-induced cytopathic effect after 4 to 5 days by MTS assay. It is filed as functional, organism-based. To be noted: Human immunodeficiency virus 1, MT4.
Data set [12] in a line: Elimination half life in dog plasma at 0.41 mg/kg, iv and 0.41 to 2.05 mg/kg, sc by LC-MS/MS analysis. In kind it is ADME, organism-based, Canis lupus familiaris. To be noted: read-out: beta t1/2 (converted).
Data set [13] has as its system Human immunodeficiency virus 1. As to the kind of experiment: Antiviral activity against HIV1 NL4-3 clinical isolate X4 infected in human MT4 cells assessed as reduction in virus-induced cytopathic effect after 5 days by MTT assay. In kind it is functional, organism-based. To be noted: Human immunodeficiency virus 1, NL4-3 isolate X4, MT4, 120 h.

C-X-C chemokine receptor type 4, sequence (P61073 whole entry): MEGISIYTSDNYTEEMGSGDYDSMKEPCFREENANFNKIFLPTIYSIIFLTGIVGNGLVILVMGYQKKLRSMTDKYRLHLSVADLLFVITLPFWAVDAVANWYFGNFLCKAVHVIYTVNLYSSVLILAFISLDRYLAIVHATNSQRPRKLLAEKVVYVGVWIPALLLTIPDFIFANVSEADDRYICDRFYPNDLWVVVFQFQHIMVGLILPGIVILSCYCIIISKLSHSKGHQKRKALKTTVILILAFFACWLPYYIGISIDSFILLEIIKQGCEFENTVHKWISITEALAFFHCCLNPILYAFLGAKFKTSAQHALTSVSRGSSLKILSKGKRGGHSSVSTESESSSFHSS

As a reminder, the EC50 is the concentration needed to bring the measured effect to its halfway point. The compound `c1ccc2c(NC3CCNCC3)nc(NCc3ccc(CNCCCNC4CCCCC4)cc3)nc2c1` yielded an EC50 in [1] of 68.4 nM.
`CC(C)CN(CCC[C@H](NC(=O)c1ccc(CNCc2ncc[nH]2)cc1)C(=O)N[C@@H](C)c1cccc2ccccc12)CC(C)C`: the EC50 in data set [2] was determined as 6.7 nM.
The same measure, in the same setting: for `c1cc(CN2CCCNCCOCCCNCC2)ccc1CN1CCCNCCOCCCNCC1` the value was 4500 nM.
With `Clc1cc(CN2CCCNCCNCCCNCC2)cc(Cl)n1`, the EC50 in data set [3], in [4] and in data set [5] was 1200 nM in each case.
For `C1CNCCNCCCN[C@H]([C@@H]2CNCCCNCCNCCCN2)CNC1`, the EC50 in [2] is 100 nM. Further, the selectivity ratio in data set [6] was greater than 1000.
Consider `c1cc(CN2CCCNCCNCCCNCC2)ccc1CN1CCCNCCNCCCNCC1` [PLERIXAFOR], for which the EC50 in [7] is 2 nM.
In the case of `Cc1cn([C@H]2C[C@H](N=[N+]=[N-])[C@@H](COC(=O)CCCCN3CCCNCCNCCCNCC3)O2)c(=O)[nH]c1=O`, in data set [8], the EC50 was 10 nM.
In the case of `c1cc(CN2CCCSCCSCCCNCC2)ccc1CN1CCCSCCSCCCNCC1`, in data set [2], the EC50 is greater than 6800 nM.
On the same count and under the same terms, for `c1cc(CN2CCCNCCCCCCNCC2)ccc1CN1CCCNCCCCCCNCC1` the value was 9600 nM.
`CCCN(CCC)CCCCNC(=O)c1ccc(CN(Cc2ncc[nH]2)Cc2ncc[nH]2)cc1`: in data set [2], the EC50 was found to be 4 nM.
As to `Cc1cn([C@H]2C[C@H](N=[N+]=[N-])[C@@H](COC(=O)CCCCN3CCCN(Cc4ccc(CN5CCCNCCNCCCNCC5)cc4)CCNCCCNCC3)O2)c(=O)[nH]c1=O`, the EC50 in data set [8] is 5 nM. In addition, the selectivity ratio in data set [9] was 15000.
The term Tmax denotes the time at which the peak concentration occurs. Regarding `c1ccc(CNCc2ccc(CN3CCCNCCNCCCNCC3)cc2)nc1`, the Tmax in [10] was 15 min. In addition, the EC50 in [11] is 1 nM. The half-life in [12] is 93.6 min.
For the compound `C1CNCCNCCCN(CCCN2CCCNCCNCCCNCC2)CCNC1`, the EC50 in data set [2] is 248 nM. Moreover, the selectivity ratio in data set [6] is greater than 2500.
Consider `Cc1cn([C@H]2C[C@H](N=[N+]=[N-])[C@@H](COC(=O)CCCCN3CCCN(Cc4ccc(CN5CCCN(C(=O)OC(C)(C)C)CCN(C(=O)OC(C)(C)C)CCCN(C(=O)OC(C)(C)C)CC5)cc4)CCN(C(=O)OC(C)(C)C)CCCN(C(=O)OC(C)(C)C)CC3)O2)c(=O)[nH]c1=O`, for which the EC50 in data set [8] came out at 5 nM. Besides, in [9], the selectivity ratio is 1000.
With `Cn1c(CN(CCN2CCCCC2)CC2CCCN(C3CCCC3)C2)nc2ccccc21` (centres undefined), the EC50 in [13] amounted to 600 nM.
With `c1cc(CN2CCCOCCOCCCNCC2)ccc1CN1CCCOCCOCCCNCC1`, in data set [2], the EC50 is greater than 363000 nM.
